Measurements from patent US10172916B2, “Methods of treating heart failure with agonists of hypocretin receptor 2” (The Board of Trustees of the Leland Stanford Junior …, priority 2013, dated 2019).
Ends that are not written are not given here.

Test system: wild-type C57BL/6 mice stressed with angiotensin II+isoproterenol infusion (heart failure model)
Test: Orexin A minipump infusion in mice stressed with angiotensin II + isoproterenol, echocardiography
Type: in vivo, mouse
Procedure: Finally, to assess the potential of HCRTR2 as a novel therapeutic target for heart failure, wild-type mice were infused with saline (n=6) or the HCRTR2 agonist orexin A (n=7) for four weeks. At week two, all mice underwent infusion of angiotensin II and isoproterenol, neurohormones that mimic human heart failure. Echocardiography was performed blinded to drug infusion status at baseline, 2, 3 and 4 weeks (FIG. 3H).
Experimental mice were anesthetized with 1.5% isoflurane by a facemask. The Alzet osmotic minipumps (Model 2002 or 2004) from the Alzet Corporation (Cupertino, Calif., USA) were implanted subcutaneously in the back of mice, posterior to the scapulae. 14-week-old C57BL/6 mice were treated with either saline or orexin A (50 μg/kg/day) infusions using an Alzet (Cupertino, Calif.) osmotic minipump model 2004 (200 μl reservoir, 28-day release at 0.25 μl/hr) for a total of 4 weeks. At week 2, all mice were treated with angiotensin II (1.4 mg/kg/day) plus isoproterenol (15 mg/kg/day) infusion using an additional Alzet osmotic minipump, model 2002 (200 μl reservoir, 14-day release at 0.5 μl/hr) for two weeks, starting 2 weeks after initiation of the saline or orexin A infusion. Mice had echocardiography performed at baseline and weeks 2, 3 and 4.
For noninvasive echocardiography, mice were anesthetized with isoflurane via nose cone (maintenance: 1.5% isoflurane mixed with 1 L/minute 100% medical oxygen to obtain heart rate of 450±50 beats per minute). Mouse body temperature was monitored with a rectal thermometer. […]
Two-dimensional imaging (B-mode) was used to obtain a view of left and right ventricular movement during diastole and systole along the parasternal short axis. […] Early (E) wave was measured as the peak velocity during filling of the ventricle, and atrial (A) wave was measured as the peak velocity during atrial contraction, at the end of diastole. […] All data and images were saved and analyzed using a Vevo 2100 advanced cardiovascular package software with a semi-automated quantification of cardiac function (V 1.4.0 VisualSonics, Toronto, ON, Canada).

orexin A (QPLPDCCRQKTCSCRLYELLHGAGNHAAGILTL; ends and bridges not checked; cysteine pairing not given here; UniProt O43612 34-66, looked up) [HCRTR2 agonist]
Ejection Fraction (WT mice, orexin A 50 μg/kg/day infusion for 4 weeks, angiotensin II+isoproterenol during latter 2 weeks, week 4, n=7, p=0.045 vs saline): 56.6%+/−4.5 | heart function in a mouse model of heart failure (summary statement): successful in rescuing heart function | systolic function compared to saline controls (wild-type mice, four weeks infusion, angiotensin II and isoproterenol from week two, p=0.045): better systolic function compared to controls
